From patent publication US3959283A, “Amino-derivatives of 1,4-benzodioxan” (Laboratoire L. Lafon, priority 1974, dated 1976)
Counter-ions that a name gives are not always drawn.

Experiments:
[1] = Acute intravenous toxicity in mice, products of Examples 10 to 13 (LD50); conditions: mouse, in vivo, i.v., group of male and female mice
Description: (a) determined on a group of male and female mice,
(b) determined on a group consisting solely of female mice.

adrenergic receptors [2] = assay: Inhibition/reversal of tension effects of adrenalin, intravenous (products of Examples 11 to 13); format: in vivo; conditions: i.v.
Experimental: the doses of CRL 40,150 from 0.5 to 4 mg/kg being administered successively.

dogs [3] = assay: Hypotensive effect in dogs anaesthetised with Nembutal; format: in vivo
Description: This hypotension manifests itself especially in a decrease in the differential pressure, the lowering of the diastolic pressure being greater than that of the systolic pressure.

dogs [4] = assay: Intraduodenal administration to dogs anaesthetised with Nembutal (product of Example 11), Experiments A to D; format: in vivo
Experimental: Complementary experiments carried out on anaesthetised dogs have been given below for the product of Example 11 administered intraduodenally (ID).
(§1) The product was investigated by intraduodenal administration to dogs anaesthetised with Nembutal, in four experiments, A B C and D.
The arterial pressure is not altered. The pulse rate increases by at most 20% after 15 minutes and then decreases slowly (+ 14% after 30 minutes).
After 1 hour, the femoral flow rate has still been increased by 100% (from 36 to 72 ml/minute).
The α-receptors of the animal are already blocked. […] The vertebral flow rate is 20 ml/minute.
15 hr. […] 15 hr. […] 16 hr. […] 16 hr. 23 min. Propanolol: 0.3 mg/kg administered intravenously. […] The arterial pressure increases by approximately 10%. […] The pulse rate increases by 20 to 33%. […] The femoral flow rate is increased by only 25%.

adrenergic receptors [5] = assay: Tension effects of adrenalin after intraduodenal product of Example 11; format: in vivo, dogs; conditions: Experiment A
Description: as §1

adrenalin = assay: Effect on the amines and reflexes: adrenalin; conditions: in vivo
Description: (§2) In Table III below, the effects of the products on the amines and the reflexes have been summarised.

acetylcholine = assay: Effect on the amines and reflexes: acetylcholine; conditions: in vivo
Description: as §2

peripheral vagus = assay: Effect on the amines and reflexes: stimulation of the peripheral vagus; conditions: in vivo
Description: as §2

central vagus = assay: Effect on the amines and reflexes: stimulation of the central vagus; conditions: in vivo
Description: as §2

[6] = tested on: reflex relating to occlusion of the carotids; assay: Effect on the amines and reflexes: occlusion of the carotids; conditions: in vivo
Description: as §2

[7] = Experiment A, 15 and 30 mg/kg ID
[8] = Experiment B, second administration 30 mg/kg ID, after 1 hour
[9] = Experiment B, second administration 30 mg/kg ID, after 2 hours
[10] = Experiment B, third administration 30 mg/kg ID
[11] = Experiment D, second 15 mg/kg ID

Question: Which LD50 [1] does the source give for `COc1cc(OC)cc(OCCN2CCN(CC3COc4ccccc4O3)CC2)c1` (centres unmarked) [Example 11, 1-[2-(1,4-Benzodioxanyl)-methyl]-4-[2-(3,5-dimethoxyphenoxy)-ethyl]-piperazine dihydrochloride] here?
Answer: The LD50 was 60 mg/kg.

Question: And the “dose from which tension effects of adrenalin are inhibited and then reversed” value (adrenergic receptors [2])?
Answer: Its value is at least 0.37 mg/kg.

Question: And the hypotension (dogs [3])?
Answer: Its hypotension is 40%.

Question: And the arterial pressure (dogs [4]; [7])?
Answer: The arterial pressure was “not altered”.

Question: What about the “effect on the femoral flow rate” value (dogs [4]; [7]) of the same molecule?
Answer: Its value is “no effect”.

Question: What about the “effect on the vertebral flow rate” value (dogs [4]; [7]) of the same molecule?
Answer: Its value is “no effect”.

Question: What about the “increase in pulse rate” value (dogs [4]; Experiment A, after 15 minutes) of the same molecule?
Answer: Its value is “at most 20%”.

Question: And the “increase in pulse rate” value (dogs [4]; Experiment A, after 30 minutes)?
Answer: The value was 14%.

Question: What about the “increase in femoral flow rate” value (dogs [4]; Experiment B, 15 mg/kg ID, 5 minutes) of the same molecule?
Answer: The value was 134%.

Question: And the “increase in femoral flow rate” value (dogs [4]; Experiment B, 15 mg/kg ID, 15 minutes)?
Answer: The value was 194%.

Question: And the “increase in femoral flow rate” value (dogs [4]; Experiment B, 15 mg/kg ID, 1 hour)?
Answer: Its value is 100%.

Question: And the femoral flow rate (dogs [4]; Experiment B, 15 mg/kg ID, 1 hour, from 36)?
Answer: Its femoral flow rate is 72 mL/min.

Question: What about the “increase in differential arterial pressure” value (dogs [4]; Experiment B, ID) of the same molecule?
Answer: The value was 30%.

Question: What about the “increase in the pulse rate” value (dogs [4]; Experiment B, ID) of the same molecule?
Answer: The value was at most 30%.

Question: What about the “decrease in average arterial pressure” value (dogs [4]; Experiment B, ID, at most) of the same molecule?
Answer: Its value is at most 18%.

Question: What about the average arterial pressure (dogs [4]; Experiment B, ID, lowest, from 165) of the same molecule?
Answer: The average arterial pressure was 135 mm Hg.

Question: What about the femoral flow rate (dogs [4]; [8]) of the same molecule?
Answer: The femoral flow rate was 104 mL/min.

Question: What about the “increase in femoral flow rate” value (dogs [4]; [8]) of the same molecule?
Answer: The value was 184%.

Question: And the femoral flow rate (dogs [4]; [9])?
Answer: Its femoral flow rate is 92 mL/min.

Question: And the “increase in femoral flow rate” value (dogs [4]; [9])?
Answer: Its value is 156%.

Question: And the “change in femoral flow rate” value (dogs [4]; Experiment B, second administration 30 mg/kg ID, first 45 minutes)?
Answer: The value was “does not change the flow rate further”.

Question: And the femoral flow rate (dogs [4]; [10])?
Answer: Its femoral flow rate is 108 mL/min.

Question: What about the “increase in femoral flow rate” value (dogs [4]; [10]) of the same molecule?
Answer: The value was 200%.

Question: What about the “effect on the femoral flow rate” value (dogs [4]; Experiment C, 15 mg/kg ID) of the same molecule?
Answer: The value was “zero”.

Question: What about the “increase in vertebral flow rate” value (dogs [4]; Experiment C, 15 mg/kg ID, after 60 minutes) of the same molecule?
Answer: The value was 35%.

Question: And the vertebral flow rate (dogs [4]; Experiment C, 15 mg/kg ID, after 60 minutes, from 20)?
Answer: Its vertebral flow rate is 27 mL/min.

Question: What about the average pressure (dogs [4]; Experiment D, 15 mg/kg ID) of the same molecule?
Answer: Its average pressure is “remaining constant”.

Question: What about the differential pressure (dogs [4]; Experiment D, 15 mg/kg ID) of the same molecule?
Answer: The differential pressure was “large increase in the differential pressure”.

Question: What about the “increase in arterial pressure” value (dogs [4]; Experiment D, 15 mg/kg ID) of the same molecule?
Answer: The value was “approximately 10%”.

Question: What about the “increase in femoral flow rate” value (dogs [4]; Experiment D, 15 mg/kg ID, 10 minutes) of the same molecule?
Answer: The value was 170%.

Question: And the femoral flow rate (dogs [4]; Experiment D, 15 mg/kg ID, 10 minutes, from 48)?
Answer: Its femoral flow rate is 130 mL/min.

Question: What about the “increase in femoral flow rate” value (dogs [4]; Experiment D, 15 mg/kg ID, 30 minutes) of the same molecule?
Answer: The value was 100%.

Question: What about the “increase in femoral flow rate” value (dogs [4]; Experiment D, 15 mg/kg ID, 75 minutes) of the same molecule?
Answer: Its value is 50%.

Question: And the “increase in vertebral flow rate” value (dogs [4]; Experiment D, 15 mg/kg ID, first administration, at most)?
Answer: Its value is at most 16%.

Question: What about the “increase in femoral flow rate” value (dogs [4]; [11]) of the same molecule?
Answer: The value was 25%.

Question: What about the vertebral flow rate (dogs [4]; [11]) of the same molecule?
Answer: Its vertebral flow rate is 70 mL/min.

Question: What about the “increase in vertebral flow rate” value (dogs [4]; Experiment D, second 15 mg/kg ID, after 15 minutes) of the same molecule?
Answer: The value was 94%.

Question: And the “tension effects of adrenalin” value (adrenergic receptors [5]; 5 minutes after the first dose (15 mg/kg ID))?
Answer: Its value is “reversed”.

Question: What about the “passage through the intestinal barrier” value (adrenergic receptors [5]; ID) of the same molecule?
Answer: Its value is “passed through the intestinal barrier”.

Question: And the “Effect on the amines and reflexes: adrenalin” value (adrenalin)?
Answer: Its value is “reversal”.

Question: And the “Effect on the amines and reflexes: acetylcholine” value (acetylcholine)?
Answer: The value was “no change”.

Question: What about the “Effect on the amines and reflexes: stimulation of the peripheral vagus” value (peripheral vagus) of the same molecule?
Answer: Its value is “not changed”.

Question: What about the “Effect on the amines and reflexes: stimulation of the central vagus” value (central vagus) of the same molecule?
Answer: Its value is “not changed”.

Question: What about the “Effect on the amines and reflexes: reflex relating to occlusion of the carotids” value [6] of the same molecule?
Answer: The value was “reduced”.
